Earlier results, collected in patent publication US20160206617A1, “COMPOSITIONS AND THERAPEUTIC METHODS FOR ACCELERATED PLAQUE REGRESSION” (RESVERLOGIX CORP., priority 2013, published 2016).
Read-outs that look alike come from different tables or passages of the source.

Legend:
[1] = test system: ApoA-I; conditions: in vitro and in vivo
[2] = test system: atherosclerosis; conditions: SATURN; 2 years; rosuvastatin 40 mg daily, atorvastatin 80 mg daily
[3] = test system: atherosclerosis; conditions: REVERSAL; 2 years; pravastatin 40 mg daily, atorvastatin 80 mg daily
[4] = test system: atherosclerosis

COc1cc(OC)c2c(=O)[nH]c(-c3cc(C)c(OCCO)c(C)c3)nc2c1 [RVX-208, 2-(4-(2-hydroxyethoxy)-3,5-dimethylphenyl)-5,7-dimethoxyquinazolin-4(3H)-one]
effect on plasma levels of ApoA-I and HDL [1]: increase plasma levels of ApoA-I and HDL

CC(C)c1c(C(=O)Nc2ccccc2)c(-c2ccccc2)c(-c2ccc(F)cc2)n1CC[C@@H](O)C[C@@H](O)CC(=O)O [atorvastatin]
median change in PAV [2]: −0.99% | median change in PAV [3]: +0.2%

CC(C)c1nc(N(C)S(C)(=O)=O)nc(-c2ccc(F)cc2)c1/C=C/[C@@H](O)C[C@@H](O)CC(=O)O [rosuvastatin, (3R,5S,6E)-7-[4-(4-fluorophenyl)-2-(N-methylmethanesulfonamido)-6-(propan-2-yl)pyrimidin-5-yl]-3,5-dihydroxyhept-6-enoic acid]
median change PAV ([4]; ASTEROID, 2 years, rosuvastatin 40 mg daily, all patients): −0.79% | median decrease in PAV from baseline ([4]; ASTEROID, subgroup with average HDL-C during treatment less than 40 mg/dL): −1.3% | PAV decrease (median change) ([4]; FIG. 8, rosuvastatin 40 mg without RVX-208, after 104 weeks, below median HDL): 1.30% | median change in PAV [2]: −1.22%
